This note sets out measurements from PubChem BioAssay AID743424 (The Scripps Research Institute Molecular Screening Center, 2014).

SMILES strings stand for the structures. Active and inactive are the calls of the source. The rule behind the calls is not given here.

The target of the assay is Sphingosine 1-phosphate receptor 3 (Homo sapiens) (UniProt Q99500). The experiment in a line: agonism at human S1PR3 – cell-based, fluorescence, dose response, counter-screen for S1PR3 antagonist project, late-stage follow-up (AID 743424). Particulars: S1P3-expressing cells, agonist-mode fluorescence counterscreen. On the technique in general: The purpose of a counterscreen is to sort out artefacts and off-target activity.
Chain of Sphingosine 1-phosphate receptor 3 (Homo sapiens) (Q99500 whole entry, looked up): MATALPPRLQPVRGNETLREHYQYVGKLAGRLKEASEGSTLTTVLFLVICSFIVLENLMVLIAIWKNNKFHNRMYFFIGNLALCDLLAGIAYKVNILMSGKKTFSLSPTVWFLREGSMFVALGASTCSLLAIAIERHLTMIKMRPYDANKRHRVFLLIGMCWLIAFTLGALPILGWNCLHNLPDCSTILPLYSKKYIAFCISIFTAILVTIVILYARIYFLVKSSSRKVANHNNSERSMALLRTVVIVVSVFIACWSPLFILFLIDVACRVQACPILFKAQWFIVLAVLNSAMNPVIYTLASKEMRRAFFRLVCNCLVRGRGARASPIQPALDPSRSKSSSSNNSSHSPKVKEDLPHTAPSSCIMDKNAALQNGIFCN
Regarding `O=C(NC(c1cccc(Cl)c1)c1nc(-c2ccccc2)no1)c1ccc(Cl)c(Cl)c1` (configuration not stated), the EC50 (commonly the concentration giving half of the maximal effect) is > 50 µM (inactive).

Take `O=C(NC(c1ccccc1)c1nc(-c2ccccc2)no1)c1cccc(Cl)n1` (configuration not stated): the EC50 result was “inactive”. For `O=C(NC(c1ccccc1)c1nc(-c2ccccc2)no1)c1cccc(Cl)c1` (configuration not stated), the EC50 was > 50 µM (inactive).

For the compound `O=C(NC(c1cccc(Cl)c1)c1nc(-c2ccccc2)no1)c1cc(Cl)cc(Cl)c1` (configuration not stated), the EC50 was > 50 µM (inactive). Consider `CCc1ccc(C(NC(=O)c2cccc(Cl)c2)c2nc(-c3ccccc3)no2)cc1` (configuration not stated), for which the EC50 was > 50 µM (inactive). As for `O=C(NC(c1ccccc1)c1nc(-c2ccccc2)no1)c1cccc(Br)c1` (configuration not stated), the EC50 was > 50 µM (inactive).

Consider `O=C(NC(c1ccc(Cl)cc1)c1nc(-c2ccccc2)no1)c1ccc(Cl)c(Br)c1` (configuration not stated), for which the EC50 is > 50 µM (inactive).

As for `O=C(NC(c1ccccc1)c1nc(-c2ccccc2)no1)c1ccc(Cl)cc1` (configuration not stated), the EC50 was > 50 µM (inactive). As to `O=C(NC(c1ccc(Cl)cc1)c1nc(-c2ccccc2)no1)c1ccc(Cl)c(Cl)c1` (configuration not stated), the EC50 was > 50 µM (inactive). For `O=C(NC(c1nc(-c2ccccc2)no1)C1CCOCC1)c1ccc(Cl)c(Cl)c1` (configuration not stated), the EC50 was > 50 µM (inactive). In the case of `O=C(NC(c1ccc(Cl)c(Cl)c1)c1nc(-c2ccccc2)no1)c1ccc(Cl)cc1` (configuration not stated) it was > 50 µM (inactive); in that of `O=C(NC(c1ccc(Cl)c(Cl)c1)c1nc(-c2ccccc2)no1)c1ccccc1` (configuration not stated), > 50 µM (inactive). Take `O=C(NC(c1ccc(Cl)c(Cl)c1)c1nc(-c2ccccc2)no1)c1cccc(Cl)c1` (configuration not stated): the EC50 is > 50 µM (inactive). As for `O=C(NC(Cc1ccccc1)c1nc(-c2ccccc2)no1)c1cccc(Cl)c1` (configuration not stated), the EC50 was > 50 µM (inactive). Turning to `COc1ccc(C(=O)NC(c2ccccc2)c2nc(-c3ccccc3)no2)cc1` (configuration not stated), the EC50 is > 50 µM (inactive). The same measure for `O=C(NC(c1nc(-c2ccccc2)no1)C1CCCCC1)c1ccc(Cl)c(Cl)c1` (configuration not stated): > 50 µM (inactive); for `O=C(NC(c1ccc(Cl)cc1)c1nc(-c2ccccc2)no1)c1cccc(Cl)c1` (configuration not stated): > 50 µM (inactive). Take `O=C(NC(c1ccc(Cl)cc1)c1nc(-c2cccc(Cl)c2)no1)c1cccc(Cl)c1` (configuration not stated): the EC50 is > 50 µM (inactive).

Turning to `O=C(NC(c1ccc(Cl)cc1)c1nc(-c2ccccc2)no1)c1cccc(Br)c1` (configuration not stated), the EC50 is > 50 µM (inactive). Take `O=C(NC(c1ccc(Br)cc1)c1nc(-c2ccccc2)no1)c1ccc(Cl)c(Cl)c1` (configuration not stated): the EC50 is > 50 µM (inactive).

In the case of `Cc1ccc(C(NC(=O)c2cccc(Cl)c2)c2nc(-c3ccccc3)no2)cc1` (configuration not stated), the EC50 is > 50 µM (inactive). The same measure for `Cc1ccc(C(=O)NC(c2ccccc2)c2nc(-c3ccccc3)no2)cc1` (configuration not stated): > 50 µM (inactive); for `O=C(NC(c1cccc(Cl)c1)c1nc(-c2ccccc2)no1)c1cccc(Cl)c1` (configuration not stated): > 50 µM (inactive); for `O=C(NC(c1ccc(Cl)c(Cl)c1)c1nc(-c2ccccc2)no1)c1ccc(Cl)c(Cl)c1` (configuration not stated): > 50 µM (inactive). With `O=C(NC(c1ccc(Cl)cc1)c1nc(-c2ccccn2)no1)c1cccc(Cl)c1` (configuration not stated), the EC50 was > 50 µM (inactive). Take `N#Cc1ccc(C(=O)NC(c2ccc(Cl)c(Cl)c2)c2nc(-c3ccccc3)no2)cc1` (configuration not stated): the EC50 is > 50 µM (inactive). For `O=C(c1cccc(Cl)c1)N(CCO)C(c1ccc(Cl)c(Cl)c1)c1nc(-c2ccccc2)no1` (configuration not stated), the EC50 was > 50 µM (inactive).
